Laboratory results as given in PubChem BioAssay (NCI).
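Where inhibition never reached the appropriate level, the endpoint shown equals the highest concentration tested. Otherwise, values were interpolated linearly from a five-concentration, 48-hour dose response in 96-well plates. Abbreviation: GI50, concentration required for 50% inhibition of growth. The concentration for full growth arrest is given as TGI.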

Assays:
Assay in all cases: NCI-60 cell line screen, 48 h
K-562 leukemia = tested on: K-562 leukemia
HCC-2998 colon = tested on: HCC-2998 colon
UACC-257 melanoma = tested on: UACC-257 melanoma
UO-31 renal = tested on: UO-31 renal
RPMI-8226 leukemia = tested on: RPMI-8226 leukemia
SK-MEL-5 melanoma = tested on: SK-MEL-5 melanoma
A549 NSCLC = tested on: A549 NSCLC
NCI/ADR-RES ovarian = tested on: NCI/ADR-RES ovarian
OVCAR-4 ovarian = tested on: OVCAR-4 ovarian
HS 578T breast = tested on: HS 578T breast
T-47D breast = tested on: T-47D breast
KM12 colon = tested on: KM12 colon
IGROV1 ovarian = tested on: IGROV1 ovarian
SF-295 CNS = tested on: SF-295 CNS
MDA-MB-435 = tested on: MDA-MB-435
PC-3 prostate = tested on: PC-3 prostate
MDA-MB-231 breast = tested on: MDA-MB-231 breast
SW-620 colon = tested on: SW-620 colon
CCRF-CEM leukemia = tested on: CCRF-CEM leukemia
NCI-H226 lung = tested on: NCI-H226 lung
SK-MEL-28 melanoma = tested on: SK-MEL-28 melanoma
HCT-116 colon = tested on: HCT-116 colon
SN12C renal = tested on: SN12C renal
M14 melanoma = tested on: M14 melanoma
OVCAR-8 ovarian = tested on: OVCAR-8 ovarian
MALME-3M melanoma = tested on: MALME-3M melanoma
CAKI-1 renal = tested on: CAKI-1 renal
HOP-92 NSCLC = tested on: HOP-92 NSCLC
NCI-H23 lung = tested on: NCI-H23 lung
OVCAR-5 ovarian = tested on: OVCAR-5 ovarian
HCT-15 colon = tested on: HCT-15 colon
HOP-62 NSCLC = tested on: HOP-62 NSCLC
RXF 393 renal = tested on: RXF 393 renal
ACHN renal = tested on: ACHN renal
NCI-H522 lung = tested on: NCI-H522 lung
SNB-75 CNS = tested on: SNB-75 CNS
HL-60(TB) leukemia = tested on: HL-60(TB) leukemia
UACC-62 melanoma = tested on: UACC-62 melanoma
SK-MEL-2 melanoma = tested on: SK-MEL-2 melanoma
A498 renal = tested on: A498 renal
SF-539 CNS = tested on: SF-539 CNS
EKVX NSCLC = tested on: EKVX NSCLC
LOX IMVI melanoma = tested on: LOX IMVI melanoma
HT29 colon = tested on: HT29 colon
COLO 205 colon = tested on: COLO 205 colon
DU-145 prostate = tested on: DU-145 prostate
TK-10 renal = tested on: TK-10 renal
SR leukemia = tested on: SR leukemia
OVCAR-3 ovarian = tested on: OVCAR-3 ovarian
U251 CNS = tested on: U251 CNS
SK-OV-3 ovarian = tested on: SK-OV-3 ovarian
BT-549 breast = tested on: BT-549 breast
786-0 renal = tested on: 786-0 renal
MCF7 breast = tested on: MCF7 breast
SF-268 CNS = tested on: SF-268 CNS
MOLT-4 leukemia = tested on: MOLT-4 leukemia
NCI-H460 lung = tested on: NCI-H460 lung
SNB-19 CNS = tested on: SNB-19 CNS

## CO/N=C(\COc1ccc2c(=O)cc(-c3ccccc3)oc2c1)c1ccc(OC)cc1
K-562 leukemia
  GI50: > 100 µM
  TGI: > 100 µM
HCC-2998 colon
  GI50: > 100 µM
  TGI: > 100 µM
UACC-257 melanoma
  GI50: > 100 µM
  TGI: > 100 µM
UO-31 renal
  GI50: > 100 µM
  TGI: > 100 µM
RPMI-8226 leukemia
  GI50: 74 µM
  TGI: > 100 µM
SK-MEL-5 melanoma
  GI50: > 100 µM
  TGI: > 100 µM
A549 NSCLC
  GI50: > 100 µM
  TGI: > 100 µM
NCI/ADR-RES ovarian
  GI50: > 100 µM
  TGI: > 100 µM
OVCAR-4 ovarian
  GI50: 56.2 µM
  TGI: > 100 µM
HS 578T breast
  GI50: > 100 µM
  TGI: > 100 µM
T-47D breast
  GI50: 53.5 µM
  TGI: > 100 µM
KM12 colon
  GI50: 81.4 µM
  TGI: > 100 µM
IGROV1 ovarian
  GI50: > 100 µM
  TGI: > 100 µM
SF-295 CNS
  GI50: 21 µM
  TGI: 46.5 µM
MDA-MB-435
  GI50: 30 µM
  TGI: > 100 µM
PC-3 prostate
  GI50: > 100 µM
  TGI: > 100 µM
MDA-MB-231 breast
  GI50: 48.4 µM
  TGI: > 100 µM
SW-620 colon
  GI50: > 100 µM
  TGI: > 100 µM
CCRF-CEM leukemia
  GI50: > 100 µM
  TGI: > 100 µM
NCI-H226 lung
  GI50: > 100 µM
  TGI: > 100 µM
SK-MEL-28 melanoma
  GI50: > 100 µM
  TGI: > 100 µM
HCT-116 colon
  GI50: > 100 µM
  TGI: > 100 µM
SN12C renal
  GI50: 88.2 µM
  TGI: > 100 µM
M14 melanoma
  GI50: > 100 µM
  TGI: > 100 µM
OVCAR-8 ovarian
  GI50: > 100 µM
  TGI: > 100 µM
MALME-3M melanoma
  GI50: > 100 µM
  TGI: > 100 µM
CAKI-1 renal
  GI50: 24.9 µM
  TGI: 70.3 µM
HOP-92 NSCLC
  GI50: 20.2 µM
  TGI: 96.4 µM
NCI-H23 lung
  GI50: > 100 µM
  TGI: > 100 µM
OVCAR-5 ovarian
  GI50: > 100 µM
  TGI: > 100 µM
HCT-15 colon
  GI50: > 100 µM
  TGI: > 100 µM
HOP-62 NSCLC
  GI50: > 100 µM
  TGI: > 100 µM
RXF 393 renal
  GI50: > 100 µM
  TGI: > 100 µM
ACHN renal
  GI50: > 100 µM
  TGI: > 100 µM
NCI-H522 lung
  GI50: > 100 µM
  TGI: > 100 µM
SNB-75 CNS
  GI50: 38.2 µM
  TGI: > 100 µM
HL-60(TB) leukemia
  GI50: > 100 µM
  TGI: > 100 µM
UACC-62 melanoma
  GI50: > 100 µM
  TGI: > 100 µM
SK-MEL-2 melanoma
  GI50: > 100 µM
  TGI: > 100 µM
A498 renal
  GI50: 90.9 µM
  TGI: > 100 µM
SF-539 CNS
  GI50: > 100 µM
  TGI: > 100 µM
EKVX NSCLC
  GI50: > 100 µM
  TGI: > 100 µM
LOX IMVI melanoma
  GI50: > 100 µM
  TGI: > 100 µM
HT29 colon
  GI50: > 100 µM
  TGI: > 100 µM
COLO 205 colon
  GI50: > 100 µM
  TGI: > 100 µM
DU-145 prostate
  GI50: > 100 µM
  TGI: > 100 µM
TK-10 renal
  GI50: > 100 µM
  TGI: > 100 µM
SR leukemia
  GI50: > 100 µM
  TGI: > 100 µM
OVCAR-3 ovarian
  GI50: 23.2 µM
  TGI: 44.8 µM
U251 CNS
  GI50: > 100 µM
  TGI: > 100 µM
SK-OV-3 ovarian
  GI50: > 100 µM
  TGI: > 100 µM
BT-549 breast
  GI50: > 100 µM
  TGI: > 100 µM
786-0 renal
  GI50: > 100 µM
  TGI: > 100 µM

## O=C1c2ccccc2C(=O)c2c1c(NCCNCCO)c1cc[nH]c1c2NCCNCCO
K-562 leukemia
  GI50: 1.63 µM
HCC-2998 colon
  GI50: 3.18 µM
  TGI: 17.2 µM
UACC-257 melanoma
  GI50: 7.06 µM
  TGI: 29.9 µM
UO-31 renal
  GI50: 62.9 µM
  TGI: > 100 µM
RPMI-8226 leukemia
  GI50: 13.9 µM
  TGI: 47.8 µM
SK-MEL-5 melanoma
  GI50: 3.17 µM
  TGI: 16.4 µM
A549 NSCLC
  GI50: 5.46 µM
  TGI: 27.2 µM
NCI/ADR-RES ovarian
  GI50: > 100 µM
  TGI: > 100 µM
OVCAR-4 ovarian
  GI50: 14.2 µM
  TGI: 45.2 µM
HS 578T breast
  GI50: 1.93 µM
  TGI: 11.1 µM
T-47D breast
  GI50: 11.8 µM
  TGI: > 46.5 µM
KM12 colon
  GI50: 4.34 µM
  TGI: > 39.9 µM
MCF7 breast
  GI50: 1.35 µM
IGROV1 ovarian
  GI50: 9.23 µM
  TGI: > 100 µM
SF-295 CNS
  GI50: 4.37 µM
  TGI: 43 µM
MDA-MB-435
  GI50: 3.03 µM
  TGI: 11.9 µM
PC-3 prostate
  GI50: 3.22 µM
  TGI: > 25.6 µM
MDA-MB-231 breast
  GI50: 4.15 µM
  TGI: 18.9 µM
SW-620 colon
  GI50: 3.28 µM
  TGI: 25.9 µM
CCRF-CEM leukemia
  GI50: 1.04 µM
NCI-H226 lung
  GI50: 1.78 µM
  TGI: 13.5 µM
SF-268 CNS
  GI50: 0.935 µM
  TGI: 5.28 µM
SK-MEL-28 melanoma
  GI50: 3.27 µM
  TGI: 20.5 µM
HCT-116 colon
  GI50: 1.27 µM
  TGI: > 21.5 µM
SN12C renal
  GI50: 0.354 µM
  TGI: 2.67 µM
M14 melanoma
  GI50: 7.27 µM
  TGI: > 55.1 µM
OVCAR-8 ovarian
  GI50: 2.42 µM
  TGI: 40.5 µM
MALME-3M melanoma
  GI50: 1.8 µM
  TGI: 5.16 µM
CAKI-1 renal
  GI50: > 47.1 µM
  TGI: > 100 µM
MOLT-4 leukemia
  GI50: 1.28 µM
HOP-92 NSCLC
  GI50: 3.06 µM
  TGI: 16.5 µM
NCI-H23 lung
  GI50: 7.9 µM
  TGI: > 27.9 µM
OVCAR-5 ovarian
  GI50: 3.96 µM
  TGI: > 31.3 µM
HCT-15 colon
  GI50: > 70.9 µM
  TGI: > 100 µM
HOP-62 NSCLC
  GI50: 2.6 µM
  TGI: > 22.2 µM
RXF 393 renal
  GI50: 2.59 µM
  TGI: 13.2 µM
ACHN renal
  GI50: 9.96 µM
  TGI: > 100 µM
NCI-H522 lung
  GI50: 2.32 µM
  TGI: > 35.8 µM
SNB-75 CNS
  GI50: 9.77 µM
  TGI: > 100 µM
HL-60(TB) leukemia
  GI50: 2.9 µM
  TGI: > 21 µM
UACC-62 melanoma
  GI50: 1.48 µM
NCI-H460 lung
  GI50: 7.78 µM
  TGI: > 60.1 µM
A498 renal
  GI50: 8.09 µM
  TGI: 32.9 µM
SF-539 CNS
  GI50: 1.25 µM
  TGI: 14.5 µM
EKVX NSCLC
  GI50: 4.65 µM
  TGI: 25.5 µM
LOX IMVI melanoma
  GI50: 1.53 µM
  TGI: > 100 µM
HT29 colon
  GI50: 2.78 µM
  TGI: > 41.4 µM
COLO 205 colon
  GI50: 2.48 µM
  TGI: > 33.3 µM
DU-145 prostate
  GI50: 3.31 µM
  TGI: > 59 µM
TK-10 renal
  GI50: 6.04 µM
  TGI: 44.9 µM
SNB-19 CNS
  GI50: 1.26 µM
  TGI: 12.9 µM
OVCAR-3 ovarian
  GI50: 3.57 µM
  TGI: > 26.1 µM
U251 CNS
  GI50: 0.739 µM
  TGI: 19.7 µM
SK-OV-3 ovarian
  GI50: 2.85 µM
  TGI: 13.6 µM
BT-549 breast
  GI50: 2.75 µM
  TGI: 8.94 µM
786-0 renal
  GI50: 3.87 µM
  TGI: > 36.7 µM
